Our source for the IC50 values is patent US9175007B2, “IRAK inhibitors and uses thereof” (Nimbus Iris, Inc., priority 2013, dated 2015).

The target of this assay is T1, IRAK4 (Homo sapiens, UniProt Q9NWZ3).
T1 construct: purchased CARNA Bioscience 09-145
T1 sequence (Q9NWZ3 1-460): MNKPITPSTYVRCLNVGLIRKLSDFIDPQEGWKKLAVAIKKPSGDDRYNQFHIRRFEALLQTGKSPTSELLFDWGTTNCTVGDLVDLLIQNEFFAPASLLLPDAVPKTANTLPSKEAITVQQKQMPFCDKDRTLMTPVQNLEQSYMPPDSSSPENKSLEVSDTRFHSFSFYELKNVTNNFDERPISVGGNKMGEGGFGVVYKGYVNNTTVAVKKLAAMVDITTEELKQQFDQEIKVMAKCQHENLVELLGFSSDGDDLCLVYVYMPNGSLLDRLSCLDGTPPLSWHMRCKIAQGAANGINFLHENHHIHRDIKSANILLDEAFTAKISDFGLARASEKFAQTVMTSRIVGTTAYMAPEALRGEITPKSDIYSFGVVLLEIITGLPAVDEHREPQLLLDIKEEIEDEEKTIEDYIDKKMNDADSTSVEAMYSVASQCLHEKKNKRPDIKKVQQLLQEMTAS
As to the kind of experiment: IRAK-4 activity inhibition assay (Caliper). Format: biochemical. The settings on record: 3.5 nM IRAK4, 37 μM ATP, 1.5 μM Peptide 8. How it is done: A 1× kinase base buffer was prepared from 50 mM HEPES, pH 7.5 and 0.0015% Brij-35. A stop buffer was prepared from 100 mM HEPES, pH 7.5, 0.015% Brij-35, 0.2% Coating Reagent #3, and 50 mM EDTA.
Test compound was diluted to 50× of the final desired highest inhibitor concentration in reaction by 100% DMSO. 100 ul of this compound dilution was transferred to a well in a 96-well plate.
Test compound was serially diluted by transferring 30 μl to 60 μl of 100% DMSO in the next well and so forth for a total of 10 concentrations. 100 μl of 100% DMSO was added to two empty wells for no compound control and no enzyme control in the same 96-well plate.
A new 96-well plate was marked as intermediate plate. 5 μl of compound serial dilution was transferred from source plate to the corresponding wells of the intermediate plate. 45 μl of 1× kinase base buffer (KB buffer) was added to each well of the intermediate plate. The intermediate plate was placed for 10 min on a shaker.
5 μl of each well was transferred from the 96-well intermediate plate to a 384-well plate in duplicates. For example, A1 of the 96-well plate is transferred to A1 and A2 of the 384-well plate. A2 of the 96-well plate is transferred to A3 and A4 of the 384-well plate, and so on.
IRAK4 and DTT in 1× kinase base buffer was added. The 2.5× enzyme mix contained 8.8 nM IRAK4 and 5 mM DTT.
Peptide 8, ATP, MgCl2 and MnCl2 were added in the 1× kinase base buffer. The 2.5× peptide mix contained 3.75 μM peptide 8, 92.5 μM ATP, 12.5 mM MgCl2 and 2.5 mM MnCl2.
Assay plate already contained 5 μl of compound in 10% DMSO. Added 10 μl of 2.5× enzyme solution to each well of the 384-well assay plate, except no enzyme control wells. The final concentration of IRAK4 in reaction was 3.5 nM. Added 10 μl of 1× kinase base buffer to no enzyme control wells in the assay plate. Incubated at room temperature for 10 min.
Added 10 μl of 2.5× peptide solution to each well of the 384-well assay plate. The final concentration of Peptide 8 and ATP was 1.5 μM and 37 μM, respectively. Incubated at 28° C. for 40 minutes. Added 25 μl of stop buffer to stop reaction. Collected data on Caliper.
Copied conversion % data from Caliper program. Converted conversion % values to percent inhibition values. Percent inhibition=(max-conversion %)/(max-min)*100, where “max” means the conversion % of DMSO control and “min” means the conversion % of no enzyme control.

SMILES strings stand for the structures. pIC50: −log10 of the molar value. Counter-ions that a name gives are not always drawn.

`Cn1cc(Nc2nc(NC3CCCCC3)c3c4c(sc3n2)CCC4)cn1` [Compound I-15, 12-N-cyclohexyl-10-N-(1-methyl-1H-pyrazol-4-yl)-7-thia-9,11-diazatricyclo[6.4.0.0[2,6]]dodeca-1(8),2(6),9,11-tetraene-10,12-diamine]: the pIC50 is ≥ 5.30.

As for `CN(C)[C@H]1CC[C@H](Oc2nc(Nc3ccc(N4CCNCC4)cc3)nc3sc4c(c23)CCC4)CC1` [Compound I-13, 12-[[4-(dimethylamino)cyclohexyl]oxy]-N-[4-(piperazin-1-yl)phenyl]-7-thia-9,11-diazatricyclo[6.4.0.0[2,6]]dodeca-1(8),2(6),9,11-tetraen-10-amine], the pIC50 is ≥ 5.30. In the case of `c1ccc(Nc2nc(N[C@H]3CC[C@H](N4CCOCC4)CC3)c3c4c(sc3n2)CCCC4)cc1` [Compound I-7, 3-N-[4-(morpholin-4-yl)cyclohexyl]-5-N-phenyl-8-thia-4,6-diazatricyclo[7.4.0.0[2,7]]trideca-1(9),2,4,6-tetraene-3,5-diamine], the pIC50 is ≥ 5.30.

Take `COc1cccc(Nc2nc(N[C@H]3CC[C@H](N4CCOCC4)CC3)c3c4c(sc3n2)CCC4)c1` [Compound I-5, 10-N-(3-methoxyphenyl)-12-N-[4-(morpholin-4-yl)cyclohexyl]-7-thia-9,11-diazatricyclo[6.4.0.0^[2,6]]dodeca-1(8),2(6),9,11-tetraene-10,12-diamine]: the pIC50 is ≥ 5.30. The value for `c1c[nH]c(Nc2nc(N[C@H]3CC[C@H](N4CCOCC4)CC3)c3c4c(sc3n2)CCC4)n1` [Compound I-11, 10-N-(1H-imidazol-2-yl)-12-N-[4-(morpholin-4-yl)cyclohexyl]-7-thia-9,11-diazatricyclo[6.4.0.0[2,6]]dodeca-1(8),2(6),9,11-tetraene-10,12-diamine] was 4.30 to 4.70; that for `CN1CCN(c2ccc(Nc3nc(O[C@H]4CC[C@H](N(C)C)CC4)c4c5c(sc4n3)CCC5)cc2)CC1` [Compound I-68, 12-[[4-(dimethylamino)cyclohexyl]oxy]-N-[4-(4-methylpiperazin-1-yl)phenyl]-7-thia-9,11-diazatricyclo[6.4.0.0[2,6]]dodeca-1(8),2(6),9,11-tetraen-10-amine] was ≥ 5.30; that for `Cn1cc(Nc2nc(O[C@H]3CC[C@H](N(C)C)CC3)c3c4c(sc3n2)CCC4CC(N)=O)cn1` (some centres unmarked) [Compound I-20, 2-(12-[[4-(dimethylamino)cyclohexyl]oxy]-10-[(1-methyl-1H-pyrazol-4-yl)amino]-7-thia-9,11-diazatricyclo[6.4.0.0[2,6]]dodeca-1(8),2(6),9,11-tetraen-3-yl)acetamide] was ≥ 5.30. On to `Cc1cccc(Nc2nc(N[C@H]3CC[C@H](N4CCOCC4)CC3)c3c4c(sc3n2)CCC4)c1` [Compound I-4, N4-((1r,4r)-4-morpholinocyclohexyl)-N2-(m-tolyl)-6,7-dihydro-5H-cyclopenta[4,5]thieno[2,3-d]pyrimidine-2,4-diamine], for which the pIC50 was ≥ 5.30. Then `Cn1cc(Nc2nc(O[C@H]3CC[C@H](N(C)C)CC3)c3c4c(sc3n2)CC[C@H]4CC(N)=O)cn1` [Compound I-21, 2-[(3S)-12-[[4-(dimethylamino)cyclohexyl]oxy]-10-[(1-methyl-1H-pyrazol-4-yl)amino]-7-thia-9,11-diazatricyclo[6.4.0.0[2,6]]dodeca-1(8),2(6),9,11-tetraen-3-yl]acetamide], with ≥ 5.30; and `CN(C)[C@H]1CC[C@H](Oc2nc(Nc3ccccc3)nc3sc4c(c23)CCC4)CC1` [Compound I-2, 12-[[4-(dimethylamino)cyclohexyl]oxy]-N-phenyl-7-thia-9,11-diazatricyclo[6.4.0.0[2,6]]dodeca-1(8),2(6),9,11-tetraen-10-amine], with ≥ 5.30; and `CN(C)[C@H]1CC[C@H](Nc2nc(Nc3ccc(C4CCNCC4)cc3)nc3sc4c(c23)CCC4)CC1` [Compound I-71, 12-N-[4-(dimethylamino)cyclohexyl]-10-N-[4-(piperidin-4-yl)phenyl]-7-thia-9,11-diazatricyclo[6.4.0.0[2,6]]dodeca-1(8),2(6),9,11-tetraene-10,12-diamine hydrochloride], with ≥ 5.30.

As to `CN1CCC(c2ccc(Nc3nc(N[C@H]4CC[C@H](N5CCOCC5)CC4)c4c5c(sc4n3)CCC5)cc2)CC1` [Compound I-10, 10-N-[4-(1-methylpiperidin-4-yl)phenyl]-12-N-[4-(morpholin-4-yl)cyclohexyl]-7-thia-9,11-diazatricyclo[6.4.0.0[2,6]]dodeca-1(8),2(6),9,11-tetraene-10,12-diamine], the pIC50 is ≥ 5.30. The value for `CN(C)[C@H]1CC[C@H](Oc2nc(Nc3ccccc3)nc3sc4c(c23)C(CC(N)=O)CC4)CC1` (some centres unmarked) [Compound I-17, 2-(12-[[4-(dimethylamino)cyclohexyl]oxy]-10-(phenylamino)-7-thia-9,11-diazatricyclo[6.4.0.0^[2,6]]dodeca-1(12),2(6),8,10-tetraen-3-yl)acetamide] was ≥ 5.30. Consider `CN1CCN(c2ccc(Nc3nc(N[C@H]4CC[C@H](N(C)C)CC4)c4c5c(sc4n3)CCC5)cc2)CC1` [Compound I-69, 12-N-[4-(dimethylamino)cyclohexyl]-10-N-[4-(4-methylpiperazin-1-yl)phenyl]-7-thia-9,11-diazatricyclo[6.4.0.0[2,6]]dodeca-1(8),2(6),9,11-tetraene-10,12-diamine], for which the pIC50 was ≥ 5.30.

Turning to `c1ccc(Nc2nc(N[C@H]3CC[C@H](N4CCOCC4)CC3)c3c4c(sc3n2)CCC4)cc1` [Compound I-1, N4-((1r,4r)-4-morpholinocyclohexyl)-N2-phenyl-6,7-dihydro-5H-cyclopenta[4,5]thieno[2,3-d]pyrimidine-2,4-diamine], the pIC50 is ≥ 5.30.

Compound `Cc1ccc(Nc2nc(N[C@H]3CC[C@H](N4CCOCC4)CC3)c3c4c(sc3n2)CCC4)cc1` [Compound I-6, N4-((1r,4r)-4-morpholinocyclohexyl)-N2-(p-tolyl)-6,7-dihydro-5H-cyclopenta[4,5]thieno[2,3-d]pyrimidine-2,4-diamine] showed a pIC50 of 4.30 to 4.70. The value for `CN(C)[C@H]1CC[C@H](Oc2nc(Nc3ccc(N4CCNCC4)cc3)nc3sc4c(c23)C(CC(N)=O)CC4)CC1` (some centres unmarked) [Compound I-18, 2-(12-[[4-(dimethylamino)cyclohexyl]oxy]-10-[[4-(piperazin-1-yl)phenyl]amino]-7-thia-9,11-diazatricyclo[6.4.0.0[2,6]]dodeca-1(12),2(6),8,10-tetraen-3-yl)acetamide] was ≥ 5.30; that for `c1coc(Nc2nc(N[C@H]3CC[C@H](N4CCOCC4)CC3)c3c4c(sc3n2)CCCC4)n1` [Compound I-8, 3-N-[4-(morpholin-4-yl)cyclohexyl]-5-N-(1,3-oxazol-2-yl)-8-thia-4,6-diazatricyclo[7.4.0.0[2,7]]trideca-1(9),2(7),3,5-tetraene-3,5-diamine] was 4.70 to 5.30.

With `c1cc(C2CCNCC2)ccc1Nc1nc(N[C@H]2CC[C@H](N3CCOCC3)CC2)c2c3c(sc2n1)CCC3` [Compound I-70, 12-N-[4-(morpholin-4-yl)cyclohexyl]-10-N-[4-(piperidin-4-yl)phenyl]-7-thia-9,11-diazatricyclo[6.4.0.0[2,6]]dodeca-1(8),2(6),9,11-tetraene-10,12-diamine hydrochloride], the pIC50 was ≥ 5.30. Then `c1coc(Nc2nc(N[C@H]3CC[C@H](N4CCOCC4)CC3)c3c4c(sc3n2)CCC4)n1` [Compound I-9, 12-N-[4-(morpholin-4-yl)cyclohexyl]-10-N-(1,3-oxazol-2-yl)-7-thia-9,11-diazatricyclo[6.4.0.0[2,6]]dodeca-1(8),2(6),9,11-tetraene-10,12-diamine], with 4.70 to 5.30.

One may read the pIC50 as the negative decadic logarithm of the IC50, by convention in mol/L. A high value points to a small IC50.
